# Laboratory results reported in patent publication US10874631B2, “Altertoxin II as a selective inhibitor of Ewing family of tumor cells” (priority 2016, dated 2020).
# Test system: A673 Ewing sarcoma cells
# Assay: γH2AX immunofluorescence / high-content imaging
# Format: cell-based
# Method: FIG. 7A-7B. Altertoxin II (ATXII) selectively induces γH2AX foci in A673 Ewing sarcoma cells. (A) A673 cells were treated for 24 h with 100 nM altertoxin II and serine 139 phosphorylation of γH2AX evaluated by indirect immunofluorescence techniques. (B) High-content imaging and image analysis were used to construct concentration-response curves for nuclear γH2AX intensity in A673 and Rh30 rhabdomyosarcoma cells after treatment with altertoxin II for 6 h.
# Studies were conducted to test whether altertoxin II initiates DNA damage in Ewing sarcoma cells because of the well-known sensitivity of these cells to DNA damage and prior reports of altertoxin II-induced DNA damage in other mammalian cells (Fleck, S. C. et al., Toxicol Lett, 214, 27-32, 2012). […] Consistent with these measures of DNA damage altertoxin II.
compound,measurement,setting,value
O=C1CC[C@]2(O)c3c(ccc(O)c31)-c1ccc(O)c3c1[C@H]2[C@H]1O[C@H]1C3=O [altertoxin II],"nuclear γH2AX, high-content imaging","30 nM, 6 h",caused an increase in γH2AX
same,H2AX serine 139 phosphorylation (γH2AX),"100 nM, within 6 h",rapidly induced H2AX serine 139 phosphorylation
